{"source": "patent US12594265B2", "about": "“Methods and compositions for inhibition of STAT3” (Ohio State Innovation Foundation, priority 2017, dated 2026)", "key": {"[1]": {"system": "IL-17 production in PBMCs from MS patients", "format": "cell-based, human", "conditions": "for IL-17 production in PBMCs from MS patients: activated with anti-CD3 for three or six days, different concentrations", "procedure": "FIGS. 14A-14M show representative data for LLL12b suppression of human Th17 development and promotion of Treg development in CD4 T-cells from MS patients. FIGS. 14A, 14E, 14H, and 14K each shown representative data obtained in PBMCs from 22 treatment-naïve MS patients that were activated with αhCD3 plus rhIL-6 for 3 days, in the presence of 0.125 μM or 0.25 μM of LLL12b. DMSO was used as a vehicle control. IL-17 in supernatant was determined by ELISA. FIGS. 14B-14C, 14F, 14I, and 14L each shown representative data obtained in PBMCs from 22 treatment-naïve MS patients that were activated with αhCD3/CD28 plus rhTGFβ. rhIL-2 and RA for 3 days, in the presence of 0.125 μM of LLL12b. DMSO was used as vehicle control. CD25+FoxP3+CD4+ iTregs were determined by intracellular flow cytometry. Cells were gated CD45RA+CD4+ cells. […] IL-17 in each group was compared with one-way ANOVA. […] FIG. 14G the calculated IL-17/Treg ratio of each patient in LLL12b group and DMSO group and compared with Wilcoxon matched-pairs signed rank test. […] FIG. 14J the calculated percent decrease of IL-17/Treg ratio in LLL12b group compared to DMSO group. […] FIG. 14M patient numbers in different ranges of calculated percent decrease of IL-17/Treg.\nFIGS. 12A-12B show representative data for the effect of a representative disclosed compound, LLL12b, on the production of proinflammatory cytokines in human peripheral blood mononuclear cells (PBMCs).\nLLL12b reduces Teff/Treg ratio by suppressing human Th17 development and promoting Treg development of CD4 T cells from MS patients. Teff/Treg balance is critical for the normal function of the human immune system and increased Teff/Treg ratio favors autoimmunity. As IL-6/STAT3 signaling pathway is critical for the highly encephalitogenic Th17 cells while blocks the development of inducible Tregs (iTregs), we hypothesize that novel small molecule STAT3 inhibitor LLL12b will reduces Teff/Treg ratio by suppressing Th17 development and/or prompting iTreg development. Therefore, we determined the effects of LLL12b on IL-17 production and iTreg development of CD4 T cells from 22 treatment-naïve MS patients (FIGS. 14A-14M). Human PBMCs from 22 treatment-naïve MS patients were activated with αhCD3 for 3 days, in the presence of different concentrations of LLL12b or vehicle control (DMSO), IL-17 production in supernatants was determined by ELISA. As the myelin-reactive CD4 T cells in MS patients are predominantly from the memory T-cell compartment, we activated human PBMCs with αhCD3 to specifically activate effector/memory CD4 T cells.\nTo determine whether LLL12b treatment decreases Th17/Treg ratio in CD4 T cells from MS patients, the IL-17/Treg ratio of all 22 treatment-naïve MS patients treated with LLL12b was calculated and compared with those treated with DMSO (FIGS. 14G, 14J, and 14M). The data in Table 2 show the patient numbers in different ranges of percentage decrease of IL-17, percentage increase of iTregs or percentage decrease of IL-17/iTreg of 22 treatment-naïve MS patients treated with LLL12b compared to DMSO treatment."}, "[2]": {"system": "pSTAT3 in CD4 T cells from MS patients", "assay": "Phosphorylation of STAT3 in CD4 T cells from MS patients (phospho flow cytometry)", "format": "cell-based, human", "conditions": "0.25 μM; αhCD3 plus rhIL-6 for 30 minutes; 6 patients", "procedure": "FIGS. 13A-13C show representative data for the effect of LLL12b treatment on the phosphorylation status of STAT3 in CD4 T-cells obtained from MS patients. Briefly, PBMCs from treatment-naïve MS patients were activated with αhCD3 plus rhIL-6 for 30 minutes, in the presence of 0.25 μM of LLL12b or vehicle control (DMSO). pSTAT3 was determined by phospho flow cytometry. Cells were gated on CD4+ cells.\nLLL12b inhibits the phosphorylation of STAT3 in CD4 T cells from MS patients. To determine whether LLL12b suppresses the phosphorylation of STAT3 in human CD4 T cells, PBMCs from 6 treatment-naïve MS patients were activated with αhCD3 plus rhIL-6 for 30 minutes, in the presence of 0.25 μM of LLL12b or vehicle control (DMSO). pSTAT3 was determined by phospho flow cytometry."}, "[3]": {"system": "Teff cells from MS patients", "assay": "CFSE-based Treg-mediated suppression assay on Teff cells from MS patients", "format": "cell-based, human", "conditions": "0.25 μM for 1-2 hrs; 3 treatment-naïve MS patients", "procedure": "FIGS. 15A-15C show representative data for LLL12b enhancement of Treg-mediated suppression on Teff cells obtained from MS patients. PBMCs were obtained from three treatment-naïve MS patients and were activated with αhCD3/CD28 plus rhTGFβ, rhIL-2 and RA for 3 days to generate Tregs. Meanwhile, PBMCs from the same three MS patients were labeled with CFSE and cultured with 0.25 μM of LLL12b or DMSO for 1-2 hours. The LLL12b or DMSO treated CFSE-CD4 T cells were then mixed with Tregs generated from the same patient at different ratios and activated with αhCD3 for 5 days. Proliferation of Teff cells was determined by flow cytometric analysis of CFSE on CD4 T cells. Cells were gated on CD4+ cells.\nLLL12b enhances Treg mediated suppression on Teff cells from MS patients. Since Teff cells from MS patients are resistant to Treg mediated suppression and IL-6/STAT3 signaling promotes the resistance of Teff in MS patient, we determined whether LLL12b may enhance the Treg-mediated suppression on Teff from MS patients using CFSE-based suppression assay. PBMCs from three treatment-naïve MS patients were labeled with CFSE and cultured with 0.25 μM of LLL12b or DMSO for 1-2 hrs. Then the CFSE-CD4 T cells were mixed with iTregs differentiated from the same patient at different ratio, and activated with αhCD3 for 5 days. […]"}, "[4]": {"system": "IL-23-induced IL-17 production in myelin specific CD4 T cells", "assay": "IL-23-induced IL-17 production in myelin-specific CD4 T cells (splenocytes of PLP-immunized SJL mice)", "format": "cell-based", "conditions": "PLP 139-151 with IL-23 for 3 days, different concentrations", "excerpt": "Briefly, SJL mice were immunized with PLP 139-151. Splenocytes were isolated on day 20 after immunization and activated with PLP 139-151 with our without IL-23 for 3 days, in the presence of different concentrations of LLL12b or DMSO (vehicle control). […] Cells were gated on CD44+CD4+ T cells. Flow data are representative of three independent experiments. […] All error bars denote s.e.m. * * denotes p<0.01; *** denotes p<0.001; **** denotes p<0.0001."}, "[5]": {"conditions": "of 22 treatment-naïve MS patients, compared to DMSO"}}, "data": [{"compound": "NS(=O)(=O)c1cccc2c1C(=O)c1cccc(O)c1C2=O", "note": "[LLL12]", "values": [{"measurement": "IL-17 production in PBMCs from MS patients", "setting": "[1]", "result": "suppress IL-17 production"}]}, {"compound": "CN(C)C(=O)Oc1cccc2c1C(=O)c1cccc(S(N)(=O)=O)c1C2=O", "note": "[LLL12b]", "values": [{"measurement": "pSTAT3 expression in CD4 T cells from MS patients", "setting": "[2]", "result": "significantly suppresses pSTAT3 expression"}, {"measurement": "Treg mediated suppression on Teff cells (% suppression)", "setting": "[3]", "result": "significantly increased"}, {"measurement": "IL-23-induced IL-17 production", "setting": "[4]", "result": "inhibition of IL-23-induced IL-17 production"}, {"measurement": "hIL-17 production", "setting": "[1]; 0.125 μM and 0.25 μM, one MS patient, 3 days", "result": "suppressed hIL-17 production"}, {"measurement": "IL-17 production in effector/memory human CD4 T cells", "setting": "[1]; 0.125 μM, 22 treatment-naïve MS patients", "result": "significantly suppressed IL-17 production"}, {"measurement": "IL-17/Treg ratio", "setting": "[1]; 22 treatment-naïve MS patients, compared to DMSO treated group", "result": "significantly lower"}, {"measurement": "IL-17 production in PBMCs from MS patients", "setting": "[1]", "result": "suppress IL-17 production"}, {"measurement": "patient numbers with % Decrease of IL-17 5-20%", "setting": "[1]; [5]", "result": 11}, {"measurement": "patient numbers with % Decrease of IL-17 20-40%", "setting": "[1]; [5]", "result": 7}, {"measurement": "patient numbers with % Decrease of IL-17/iTreg ratio 5-20%", "setting": "[1]; [5]", "result": 5}, {"measurement": "patient numbers with % Decrease of IL-17/iTreg ratio 20-40%", "setting": "[1]; [5]", "result": 13}, {"measurement": "patient numbers with % Decrease of IL-17/iTreg ratio <5%", "setting": "[1]; [5]", "result": 1}, {"measurement": "patient numbers with % Decrease of IL-17/iTreg ratio >40%", "setting": "[1]; [5]", "result": 3}, {"measurement": "patient numbers with % Decrease of IL-17 <5%", "setting": "[1]; [5]", "result": 1}, {"measurement": "patient numbers with % Decrease of IL-17 >40%", "setting": "[1]; [5]", "result": 3}]}]}
